According to patent US5869527A, “6-(N-carboxymethylamino)caproate, salts thereof and methods of use therefor” (Alteon Inc., priority 1996, dated 1999):

Experiments:
[1] = tested on: advanced glycosylation endproducts; details: U.S. Pat. No. 4,758,583; cited from earlier work
[2] = tested on: Hb-AGE; details: diabetic patients treated for 28 days; WO 93/13421; cited from earlier work
[3] = molecular target: monoclonal antibody BH4; assay: Competition ELISA, inhibition of mAb BH4 binding; parameters: species or system mouse
Experimental: (§1) The ability of monoclonal antibodies, mAb 4G9, mAb BH4 and mAb 2G6, raised against KLH non-enzymatically glycated by prolonged incubation with glucose (KLH-AGE), to recognize the disodium 6-(N-carboxymethylamino)caproate was determined.
(§2) Direct ELISA and competition ELISA. For direct ELISA, 6- (N-carboxymethylamino)caproate was coated on microtiter plates, the unbound sites were blocked by incubation with Assay Buffer (25 mM borate, pH 8.0, 150 mM NaCl, 0.01% EDTA and 1% BSA). The plate was washed six times and increasing concentrations of mAb in Assay Buffer were added. […] The unbound antibodies were removed by extensive washing and the bound antibodies were detected by addition of p-nitrophenylphosphate in recording the optical density at 410 nm.
(§3) The competition ELISA was performed by pre-coating microtiter plates with disodium 6-(N-carboxymethylamino)caproate and blocking with Assay Buffer. […] The unbound materials were removed by extensive washing and the bound mAb was detected with alkaline phosphatase labeled anti-mouse antibodies similar to direct ELISA. […]
(§4) Competitive ELISA: Plates coated with BSA-AGE at 10 μg/ml. […] In the case of isothiocyanate the plates are soaked for 15 minutes with varying concentrations of isothiocyanate and the level of binding then measured.

[4] = molecular target: monoclonal antibody 2G6; assay: Competition ELISA, inhibition of mAb 2G6 binding; parameters: species or system mouse
Experimental: as §1, §2, §3, §4

[5] = tested on: antibodies to advanced glycosylation endproducts; assay: Recognition of compounds by monoclonal antibodies to advanced glycosylation endproducts (direct/competition ELISA); format: binding; details: qualitative
Experimental: as §1
Direct ELISA and competition ELISA. For direct ELISA, 6- (N-carboxymethylamino)caproate was coated on microtiter plates, the unbound sites were blocked by incubation with Assay Buffer (25 mM borate, pH 8.0, 150 mM NaCl, 0.01% EDTA and 1% BSA). The plate was washed six times and increasing concentrations of mAb in Assay Buffer were added. After this incubation, the plate was again washed and incubated with alkaline-phosphatase labeled goat anti-mouse antibodies (Cappel, Durham, N.C.) diluted 1:1000 in Assay Buffer. The unbound antibodies were removed by extensive washing and the bound antibodies were detected by addition of p-nitrophenylphosphate in recording the optical density at 410 nm.
as §3

[6] = molecular target: monoclonal antibody 4G9; assay: Competition ELISA, inhibition of mAb 4G9 binding; parameters: species or system mouse
Experimental: as §1, §2, §3, §4

[7] = Competitive ELISA, plates coated with BSA-AGE at 10 μg/ml

Row | Compound | inhibition of formation of advanced glycosylation endproducts [1] | levels of Hb-AGE at the end of the treatment period [2] | Concentration of Antigen for 50% Inhibition of mAb BH4 [3, 7] | recognition by monoclonal antibody BH4 ([3]; qualitative, ELISA) | Concentration of Antigen for 50% Inhibition of mAb 2G6 [4, 7] | recognition by monoclonal antibody 2G6 ([4]; qualitative, ELISA) | recognition by antibodies which recognize advanced glycosylation endproducts [5] | Concentration of Antigen for 50% Inhibition of mAb 4G9 [6, 7] | recognition by monoclonal antibody 4G9 ([6]; qualitative, ELISA)
1 | N=C(N)NN [aminoguanidine] | identified as an inhibitor | significantly decreased levels of Hb-AGE | – | – | – | – | – | – | –
2 | O=C(O)CCCCCNCC(=O)O [ALT-927, disodium 6-(N-carboxymethylamino)caproate] | – | – | 5.7 pmol/well | displayed recognition | 21 pmol/well | displayed recognition | have been shown to recognize | 11 pmol/well | displayed recognition
